Laboratory results as given in patent publication US10702506B2, “Small molecule inhibitors of pendrin ion exchange and pharmaceutical compositions” (THE REGENTS OF THE UNIVERSITY OF CALIFORNIA, priority 2016, dated 2020).

Tests used:
pendrin [1] = biological target: T1, pendrin (Homo sapiens, UniProt O43511); test: YFP (EYFP-HIF) fluorescence quenching assay of pendrin-mediated Cl− exchange (SCN−, I−, NO3−) in FRT cells; high-throughput screen; format: cell-based; design: expressed in transfected cells; conditions: FRT, 25 μM; read-out: Inh. (%), percentage inhibition of human pendrin
T1 sequence (O43511 1-780): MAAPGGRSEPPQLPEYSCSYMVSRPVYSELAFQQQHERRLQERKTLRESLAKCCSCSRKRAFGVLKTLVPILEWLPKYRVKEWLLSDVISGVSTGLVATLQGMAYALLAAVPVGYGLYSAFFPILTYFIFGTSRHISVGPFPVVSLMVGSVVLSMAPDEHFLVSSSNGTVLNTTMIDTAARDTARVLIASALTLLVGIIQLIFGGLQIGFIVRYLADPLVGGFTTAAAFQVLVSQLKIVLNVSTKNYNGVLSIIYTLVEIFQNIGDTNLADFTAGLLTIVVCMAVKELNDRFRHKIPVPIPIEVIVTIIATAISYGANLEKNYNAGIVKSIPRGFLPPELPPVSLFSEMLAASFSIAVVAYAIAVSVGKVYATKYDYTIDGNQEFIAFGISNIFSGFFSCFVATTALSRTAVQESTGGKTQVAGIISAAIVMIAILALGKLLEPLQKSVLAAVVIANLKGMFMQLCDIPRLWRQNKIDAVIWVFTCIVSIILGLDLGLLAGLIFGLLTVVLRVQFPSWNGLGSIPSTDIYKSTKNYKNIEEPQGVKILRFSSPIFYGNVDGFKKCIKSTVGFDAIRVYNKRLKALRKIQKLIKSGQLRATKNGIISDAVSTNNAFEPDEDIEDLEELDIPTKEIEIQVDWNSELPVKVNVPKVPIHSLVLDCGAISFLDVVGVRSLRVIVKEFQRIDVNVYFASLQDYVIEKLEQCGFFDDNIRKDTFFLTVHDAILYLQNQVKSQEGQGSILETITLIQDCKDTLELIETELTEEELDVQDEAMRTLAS
Protocol: Fischer rat thyroid (FRT) cells were cultured in Kaign's modified Ham's F12 medium supplemented with 10% FBS, 2 mM L-glutamine, 100 U/ml penicillin, […], […] myo-inositol and […] ascorbic acid. For high-throughput screening, FRT cells were stably transfected with EYFP-H148Q/I152L/F46L (EYFP-HIF; in pcDNA3.1/Hygro (+)), isolated using 0.25 mg/ml hygromycin B, and then transfected with pcDNA3.1 (+) encoding human pendrin with clonal cell lines selected using 0.5 mg/ml G418.
High-throughput screening was performed using a semi-automated screening platform (Beckman, Fullerton, Calif.) configured as described. FRT cells expressing human pendrin and EYFP-HIF were plated in 96-well black-walled, clear-bottom tissue culture plates (Corning, Corning, N.Y.) at a density of 20,000 cells/well, and cultured to confluence over 48 h. For screening, plates were washed twice with PBS (in mM: 137 NaCl, 2.7 KCl, 1.1 KH2PO4, 8.1 Na2HPO4, 0.9 CaCl2), 0.5 MgCl2) prior to addition of 100 μl PBS containing test compounds. Screening was done with ˜36,000 compounds from ChemDiv (San Diego, Calif.), TimTec (Newark, Del.), and Asinex (Winston-Salem, N.C.). After 10 min incubation with test compound, plates were transferred to a Tecan Infinite M1000 plate reader (Tecan, Morrisville, N.C.) for fluorescence assay of pendrin activity. The assay duration was 10 s with initial fluorescence intensity recorded for 2 s prior to addition of 100 μl of NaSCN-substituted PBS (137 mM NaCl replaced with NaSCN). All assay plates contained negative controls (DMSO). In some experiments Cl^− exchange for I^− or NO3^− was measured similarly using NaI and NaNO3-substituted PBS. Control experiments to measure basal ion transport rates were done in FRT cells expressing EYFP-HIF without pendrin.
FRT cells were chosen for screening due to their low intrinsic permeability to anions that are transported by pendrin. As depicted in FIGS. 1A and 2A, pendrin activity was assayed from the kinetics of the halide-sensitive fluorescent protein EYFP-HIF in response to addition of a SCN^−-containing solution to drive pendrin-mediated Cl^−/SCN^−. Pendrin inhibition reduces the rate of EYFP-HIF quenching. PDSinh-A01 land PDSinh-C01 decreased pendrin-mediated Cl^−/SCN^− and Cl^−/I^− exchange in a concentration-dependent manner, as measured by YFP fluorescence quenching. […] Because the only previously-described pendrin inhibitor is the weakly active compound niflumic acid, no positive control was included in the screening plates.

pendrin [2] = biological target: T2, pendrin (Mus musculus, UniProt Q9R155); test: In vitro measurement of furosemide effect on pendrin activity
T2 sequence (Q9R155 1-780): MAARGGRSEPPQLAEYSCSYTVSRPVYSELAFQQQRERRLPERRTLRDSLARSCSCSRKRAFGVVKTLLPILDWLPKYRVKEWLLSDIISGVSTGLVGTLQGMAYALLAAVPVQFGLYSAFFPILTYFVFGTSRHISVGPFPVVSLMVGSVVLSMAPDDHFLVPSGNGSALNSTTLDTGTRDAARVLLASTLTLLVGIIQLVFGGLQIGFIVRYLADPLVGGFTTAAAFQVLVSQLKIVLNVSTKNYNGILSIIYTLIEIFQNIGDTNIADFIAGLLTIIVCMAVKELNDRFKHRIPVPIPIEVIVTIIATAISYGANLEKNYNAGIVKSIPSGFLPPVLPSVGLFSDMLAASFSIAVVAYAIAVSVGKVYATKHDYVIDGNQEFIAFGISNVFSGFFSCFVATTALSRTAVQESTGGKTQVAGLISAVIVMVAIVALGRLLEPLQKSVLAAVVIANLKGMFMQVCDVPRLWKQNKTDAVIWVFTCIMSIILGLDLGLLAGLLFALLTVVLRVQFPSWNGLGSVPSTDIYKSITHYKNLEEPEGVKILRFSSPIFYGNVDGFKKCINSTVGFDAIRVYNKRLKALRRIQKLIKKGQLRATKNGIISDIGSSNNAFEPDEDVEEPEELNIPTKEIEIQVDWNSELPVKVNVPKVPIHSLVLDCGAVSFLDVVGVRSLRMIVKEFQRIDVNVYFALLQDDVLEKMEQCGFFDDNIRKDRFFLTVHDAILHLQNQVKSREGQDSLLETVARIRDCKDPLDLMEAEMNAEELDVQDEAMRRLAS

| Structure (SMILES) | inhibition at 25 µM (pendrin [1]) | effect on pendrin activity (pendrin [2]) |
| --- | --- | --- |
| CSc1ccc(NC(=O)N2CCc3c(c(COc4ccccc4)nn3C)C2)cc1 | 77% |  |
| Cn1nc(COc2ccccc2)c2c1CCN(C(=O)Nc1ccc(Cl)cc1)C2 | 72% |  |
| COc1ccc(NC(=O)N2CCc3c(c(COc4ccccc4)nn3C)C2)cc1F | 69% |  |
| Cc1ccc(NC(=O)N2CCc3c(c(COc4ccccc4)nn3C)C2)cc1C | 64% |  |
| Cc1ccc(NC(=O)N2CCc3c(c(COc4ccccc4)nn3C)C2)cc1 | 61% |  |
| Cc1ccc(NC(=O)N2CCc3c(c(COc4ccc(F)cc4)nn3C)C2)cc1Cl | 61% |  |
| Cc1ccc(NC(=O)N2CCc3c(c(COc4ccc(F)cc4)nn3C)C2)cc1C | 58% |  |
| Cn1nc(COc2cccc(F)c2)c2c1CCN(C(=O)Nc1cccc(Cl)c1)C2 | 60% |  |
| COc1ccc(NC(=O)N2CCc3c(c(COc4ccc(F)cc4)nn3C)C2)cc1F | 53% |  |
| Cc1ccc(NC(=O)N2CCc3c(c(COCc4cccc(F)c4)nn3C)C2)cc1Cl | 49% |  |
| Cc1ccc(NC(=O)N2CCc3c(c(COCc4ccc(F)cc4Cl)nn3C)C2)cc1C | 48% |  |
| CCc1ccc(NC(=O)N2CCc3c(c(COCc4ccc(F)cc4Cl)nn3C)C2)cc1 | 49% |  |
| Cc1ccc(NC(=O)N2CCc3c(c(COCc4ccc(Cl)cc4)nn3C)C2)cc1C | 49% |  |
| NS(=O)(=O)c1cc(C(=O)O)c(NCc2ccco2)cc1Cl [furosemide] |  | no effect |

More lines, now with the values ahead:

| inhibition at 25 µM (pendrin [1]) | effect on pendrin activity (pendrin [2]) | Structure (SMILES) |
| --- | --- | --- |
| 66% |  | Cn1nc(COc2ccc(F)cc2)c2c1CCN(C(=O)Nc1ccc(Cl)cc1)C2 |
| 57% |  | Cn1nc(COc2ccc(F)cc2)c2c1CCN(C(=O)Nc1cccc(C(F)(F)F)c1)C2 |
| 54% |  | CCc1ccc(NC(=O)N2CCc3c(c(COc4ccccc4)nn3C)C2)cc1 |
| 54% |  | Cn1nc(COc2ccc(F)cc2)c2c1CCN(C(=O)Nc1ccc(F)c(Cl)c1)C2 |
| 45% |  | CSc1cccc(NC(=O)N2CCc3c(c(COc4ccccc4)nn3C)C2)c1 |
| 53% |  | Cc1cc(-c2cc(S(=O)(=O)NC3CCCc4ccccc43)c(C)s2)[nH]n1 (centres unmarked) |
